This is an account of results in patent publication US12662451B2, “Chemical compounds and uses thereof” (GLAXOSMITHKLINE INTELLECTUAL PROPERTY (NO.4) LIMITED, priority 2023, dated 2026).

In test [1] the target is T1, recombinant full-length WRN protein (1-1432) (Homo sapiens, UniProt Q14191).
T1 construct: recombinant full-length WRN protein (1-1432)
The test is described as follows: WRN unwinding activity, fluorogenic 384-well assay (Example A). The format is biochemical. The note with it: WRN unwinding activity, 4 hr; Table 2; read-out: 4 hr UNW pIC50 (converted). The method, boiled down:
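Read-out is end-point unwinding of a fluorophore/quencher duplex (ex 525, em 598 nm) after 60 min with 200 μM ATP and 12 nM DNA (2× stocks), EDTA stop. Compound first sat 4 h with 200 pM WRN (2× stock) in pH 8.0 Tris buffer; four-parameter fit gives pIC50.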

For test [2], the system named is SW48 human colorectal cancer cells (MSI-H cancer cells). Briefly: SW48 cell viability, CellTiter-Glo, 120 hours (Example B). The settings on record: Homo sapiens, SW48, 120 h, read-out: SW48 pCC50, SW48 cell viability, 120 hours incubation (converted); Table 2. For orientation: ATP-based viability assays read luminescence as a measure of living cells.

T1 sequence (Q14191 whole entry): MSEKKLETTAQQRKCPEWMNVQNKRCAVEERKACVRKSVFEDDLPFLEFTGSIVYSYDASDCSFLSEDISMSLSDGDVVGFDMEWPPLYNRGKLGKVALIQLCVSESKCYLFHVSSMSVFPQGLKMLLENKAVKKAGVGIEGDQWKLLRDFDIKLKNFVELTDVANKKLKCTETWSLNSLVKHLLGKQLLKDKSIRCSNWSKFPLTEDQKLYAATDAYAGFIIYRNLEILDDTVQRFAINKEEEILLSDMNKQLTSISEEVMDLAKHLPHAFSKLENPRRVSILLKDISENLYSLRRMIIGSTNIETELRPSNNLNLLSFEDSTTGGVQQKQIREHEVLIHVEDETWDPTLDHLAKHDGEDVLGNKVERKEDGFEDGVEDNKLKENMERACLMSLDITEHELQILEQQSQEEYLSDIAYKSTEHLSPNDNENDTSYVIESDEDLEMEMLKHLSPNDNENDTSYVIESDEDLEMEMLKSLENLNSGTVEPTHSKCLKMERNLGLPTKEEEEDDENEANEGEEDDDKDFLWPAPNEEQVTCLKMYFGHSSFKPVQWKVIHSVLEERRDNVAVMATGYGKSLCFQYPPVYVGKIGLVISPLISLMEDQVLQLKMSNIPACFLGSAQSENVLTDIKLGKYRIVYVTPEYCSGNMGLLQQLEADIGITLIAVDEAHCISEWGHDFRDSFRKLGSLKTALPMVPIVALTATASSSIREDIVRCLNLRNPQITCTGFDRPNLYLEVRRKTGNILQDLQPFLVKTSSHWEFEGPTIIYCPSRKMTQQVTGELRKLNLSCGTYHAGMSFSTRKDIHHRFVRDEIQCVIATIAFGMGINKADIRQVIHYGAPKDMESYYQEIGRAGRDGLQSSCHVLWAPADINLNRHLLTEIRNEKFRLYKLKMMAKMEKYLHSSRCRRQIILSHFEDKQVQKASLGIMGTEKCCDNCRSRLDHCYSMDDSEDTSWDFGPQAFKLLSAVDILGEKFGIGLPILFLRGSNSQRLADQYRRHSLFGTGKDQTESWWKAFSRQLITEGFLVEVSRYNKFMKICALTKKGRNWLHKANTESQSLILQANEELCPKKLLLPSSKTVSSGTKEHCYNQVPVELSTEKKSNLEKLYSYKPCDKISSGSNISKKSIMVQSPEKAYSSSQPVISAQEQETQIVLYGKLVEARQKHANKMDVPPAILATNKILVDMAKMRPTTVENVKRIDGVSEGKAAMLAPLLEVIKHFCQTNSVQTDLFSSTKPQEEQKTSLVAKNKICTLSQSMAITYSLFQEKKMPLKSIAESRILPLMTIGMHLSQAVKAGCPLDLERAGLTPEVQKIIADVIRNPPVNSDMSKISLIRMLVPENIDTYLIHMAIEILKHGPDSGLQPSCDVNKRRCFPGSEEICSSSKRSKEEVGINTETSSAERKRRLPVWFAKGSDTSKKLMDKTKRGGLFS

For the compound `Cc1nc2cc(S(=O)(=O)N(C)c3ccc([C@H]4CCC[C@@H](C(=O)Nc5ccc(C(C)C)cc5)[C@@H]4C(=O)O)cc3)ccc2n1C` (racemic) [Example 78, rac-(1R,2R,6S)-2-((4-isopropylphenyl)carbamoyl)-6-(4-((N,1,2-trimethyl-1H-benzo[d]imidazole)-5-sulfonamido)phenyl)cyclohexane-1-carboxylic acid], the IC50 in test [1] was 0.002 µM. In test [2], the CC50 is 1 µM.
On the same counts, the results for `Cc1nc2cc(S(=O)(=O)N(C)c3ccc([C@H]4CCC[C@@H](C(=O)Nc5ccc(C(F)(F)F)cc5F)[C@@H]4C(=O)O)cc3)ccc2n1C` (racemic) [Example 81, rac-(1R,2R,6S)-2-((2-fluoro-4-(trifluoromethyl)phenyl)carbamoyl)-6-(4-((N,1,2-trimethyl-1H-benzo[d]imidazole)-5-sulfonamido)phenyl)cyclohexane-1-carboxylic acid] are 0.00794 µM and 1.26 µM.
For the compound `C=C(F)C(=O)Nc1ccc([C@H]2CCC[C@@H](C(=O)Nc3ccc(C(F)(F)F)cc3F)[C@@H]2C(=O)O)cc1` (racemic) [Example 227, rac-(1R,2R,6S)-2-((2-fluoro-4-(trifluoromethyl)phenyl)carbamoyl)-6-(4-(2-fluoroacrylamido)phenyl)cyclohexane-1-carboxylic acid], in test [1], the IC50 is 0.0794 µM. In test [2], the CC50 is 15.8 µM.
On the same counts, the results for `Cc1nc2cc(S(=O)(=O)N(C)c3ccc([C@H]4COC[C@@H](C(=O)Nc5ccc(C(F)(F)F)cc5F)[C@@H]4C(=O)O)cc3)ccc2n1C` (racemic) [Example 232, rac-(3R,4S,5R)-3-((2-fluoro-4-(trifluoromethyl)phenyl)carbamoyl)-5-(4-((N,1,2-trimethyl-1H-benzo[d]imidazole)-5-sulfonamido)phenyl)tetrahydro-2H-pyran-4-carboxylic acid] are 0.00158 µM and 1.26 µM.
Taken in the same sequence, the figures for `Cc1nc2cc(S(=O)(=O)N(C)c3ccc([C@H]4C[C@@](C)(O)C[C@@H](C(=O)Nc5ccc(C(F)(F)F)cc5F)[C@@H]4C(=O)O)cc3)ccc2n1C` (racemic) [Example 356, rac-(1R,2R,4R,6S)-2-((2-fluoro-4-(trifluoromethyl)phenyl)carbamoyl)-4-hydroxy-4-methyl-6-(4-((N,1,2-trimethyl-1H-benzo[d]imidazole)-5-sulfonamido)phenyl)cyclohexane-1-carboxylic acid] were 0.0126 µM and 1.26 µM.
Regarding `Cc1nc2cc(S(=O)(=O)N(C)c3ccc([C@H]4C[C@](C)(O)C[C@@H](C(=O)Nc5ccc(C(F)(F)F)cc5F)[C@@H]4C(=O)O)cc3)ccc2n1C` (racemic) [Example 357, rac-(1R,2R,4S,6S)-2-((2-fluoro-4-(trifluoromethyl)phenyl)carbamoyl)-4-hydroxy-4-methyl-6-(4-((N,1,2-trimethyl-1H-benzo[d]imidazole)-5-sulfonamido)phenyl)cyclohexane-1-carboxylic acid], in test [1], the IC50 is 0.01 µM. The CC50 in test [2] was 1 µM.
Taken in the same sequence, the figures for `CCO[C@@H]1CC[C@@H](C(=O)Nc2ccc(C(F)(F)F)cc2F)[C@H](C(=O)O)[C@H]1c1ccc(N(C)S(=O)(=O)c2ccc3c(c2)nc(C)n3C)cc1` (racemic) [Example 371, rac-(1R,2S,3R,6R)-3-ethoxy-6-((2-fluoro-4-(trifluoromethyl)phenyl)carbamoyl)-2-(4-((N,1,2-trimethyl-1H-benzo[d]imidazole)-5-sulfonamido)phenyl)cyclohexane-1-carboxylic acid] were 0.00631 µM and 1 µM.
Taken in the same sequence, the figures for `[2H]C([2H])([2H])O[C@@H]1C[C@H](C(=O)Nc2ccc(C(F)(F)F)cc2F)[C@@H](C(=O)O)[C@H](c2ccc(N(C)S(=O)(=O)c3ccc4c(c3)nc(C)n4C)cc2)C1` (relative stereo) [Example 149, rel-(1R,2R,4R,6S)-2-((2-fluoro-4-(trifluoromethyl)phenyl)carbamoyl)-4-methoxy-6-(4-((N,1,2-trimethyl-1H-benzo[d]imidazole)-5-sulfonamido)phenyl)cyclohexane-1-carboxylic acid] were 0.00158 µM and 0.2 µM.
Consider `CCO[C@@H]1C[C@H](C(=O)Nc2ccc(C(F)(F)F)cn2)[C@@H](C(=O)O)[C@H](c2ccc(N(C)S(=O)(=O)c3ccc4c(c3)nc(C)n4C)cc2)C1` (relative stereo) [Example 156, rel-(1R,2R,4R,6S)-4-ethoxy-2-((5-(trifluoromethyl)pyridin-2-yl)carbamoyl)-6-(4-((N,1,2-trimethyl-1H-benzo[d]imidazole)-5-sulfonamido)phenyl)cyclohexane-1-carboxylic acid], for which the IC50 in test [1] is 0.126 µM. The CC50 in test [2] was 25.1 µM.
Taken in the same sequence, the figures for `Cc1nc2cc(S(=O)(=O)N(C)c3cnc([C@@H]4CCC[C@H](C(=O)Nc5ccc(C(F)(F)F)cc5F)[C@H]4C(=O)O)cn3)ccc2n1C` (relative stereo) [Example 165, rel-(1R,2R,6S)-2-((2-fluoro-4-(trifluoromethyl)phenyl)carbamoyl)-6-(5-((N,1,2-trimethyl-1H-benzo[d]imidazole)-5-sulfonamido)pyrazin-2-yl)cyclohexane-1-carboxylic acid] were 0.0251 µM and 25.1 µM.
Taken in the same sequence, the figures for `Cc1nc2cc(S(=O)(=O)N(C)c3ccc([C@H]4C[C@@H](OCC5COC5)C[C@@H](C(=O)Nc5ccc(C(F)(F)F)cc5F)[C@@H]4C(=O)O)cc3)ccc2n1C` (relative stereo) [Example 282, rel-(1R,2R,4R,6S)-2-((2-fluoro-4-(trifluoromethyl)phenyl)carbamoyl)-4-(oxetan-3-ylmethoxy)-6-(4-((N,1,2-trimethyl-1H-benzo[d]imidazole)-5-sulfonamido)phenyl)cyclohexane-1-carboxylic acid] were 0.00158 µM and 0.0631 µM.
On the same counts, the results for `COC12CC(CO[C@@H]3C[C@H](C(=O)Nc4ccc(C(F)(F)F)cc4F)[C@@H](C(=O)O)[C@H](c4ccc(N(C)S(=O)(=O)c5ccc6c(c5)nc(C)n6C)cc4)C3)(C1)C2` (relative stereo) [Example 331, rel-(1R,2R,4R,6S)-2-((2-fluoro-4-(trifluoromethyl)phenyl)carbamoyl)-4-((3-methoxybicyclo[1.1.1]pentan-1-yl)methoxy)-6-(4-((N,1,2-trimethyl-1H-benzo[d]imidazole)-5-sulfonamido)phenyl)cyclohexane-1-carboxylic acid] are 0.251 µM and 20 µM.
`Cc1nc2cc(S(=O)(=O)N(C)c3ccc([C@@H]4C[C@H](N5CCOCC5)C[C@H](C(=O)Nc5ccc(C(F)(F)F)cc5F)[C@H]4C(=O)O)cc3)ccc2n1C` (relative stereo) [Example 338, rel-(1R,2R,4R,6S)-2-((2-fluoro-4-(trifluoromethyl)phenyl)carbamoyl)-4-morpholino-6-(4-((N,1,2-trimethyl-1H-benzo[d]imidazole)-5-sulfonamido)phenyl)cyclohexane-1-carboxylic acid]: the IC50 in test [1] is 0.0794 µM. For the same compound, the CC50 in test [2] was 15.8 µM.
As to `Cc1nc2cc(S(=O)(=O)N(C)c3ccc([C@H]4C[C@@H](N5CCCCC5)C[C@@H](C(=O)Nc5ccc(C(F)(F)F)cc5F)[C@@H]4C(=O)O)cc3)ccc2n1C` (relative stereo) [Example 348, rel-(1R,2R,4R,6S)-2-((2-fluoro-4-(trifluoromethyl)phenyl)carbamoyl)-4-(piperidin-1-yl)-6-(4-((N,1,2-trimethyl-1H-benzo[d]imidazole)-5-sulfonamido)phenyl)cyclohexane-1-carboxylic acid], in test [1], the IC50 is 0.00158 µM. Further, the CC50 in test [2] is 0.398 µM.
Taken in the same sequence, the figures for `Cc1nc2cc(S(=O)(=O)N(C)c3ccc([C@H]4C[C@H](N5CCCCC5)C[C@@H](C(=O)Nc5ccc(C(F)(F)F)cc5F)[C@@H]4C(=O)O)cc3)ccc2n1C` (relative stereo) [Example 349, rel-(1R,2R,4S,6S)-2-((2-fluoro-4-(trifluoromethyl)phenyl)carbamoyl)-4-(piperidin-1-yl)-6-(4-((N,1,2-trimethyl-1H-benzo[d]imidazole)-5-sulfonamido)phenyl)cyclohexane-1-carboxylic acid] were 0.251 µM and 12.6 µM.
On to `Cc1nc2cc(S(=O)(=O)N(C)c3ccc([C@H]4C[C@@H](N5CC6(F)CC5C6)C[C@@H](C(=O)Nc5ccc(C(F)(F)F)cc5F)[C@@H]4C(=O)O)cc3)ccc2n1C` (relative stereo) [Example 398, rel-(1R,2R,4R,6S)-2-((2-fluoro-4-(trifluoromethyl)phenyl)carbamoyl)-4-(4-fluoro-2-azabicyclo[2.1.1]hexan-2-yl)-6-(4-((N,1,2-trimethyl-1H-benzo[d]imidazole)-5-sulfonamido)phenyl)cyclohexane-1-carboxylic acid], for which the IC50 in test [1] was 0.1 µM. Besides, in test [2], the CC50 was 25.1 µM.
As to `Cc1nc2cc(S(=O)(=O)N(C)c3ccc([C@H]4CCC[C@H](C(=O)Nc5ccc(C(C)C)cc5)[C@@H]4C(=O)O)cc3)ccc2n1C` (single isomer, unassigned) [Example 73], in test [1], the IC50 was 0.00126 µM. In test [2], the CC50 was 3.98 µM.
On the same counts, the results for `Cc1nc2cc(S(=O)(=O)N(C)c3ccc([C@H]4CCC[C@@H](C(=O)Nc5ccc(C(C)C)cc5)[C@H]4C(=O)O)cc3)ccc2n1C` (single isomer, unassigned) [Example 77] are 0.00398 µM and 3.98 µM.
Taken in the same sequence, the figures for `Cc1nc2cc(S(=O)(=O)N(C)c3ccc([C@H]4CCC[C@@H](C(=O)Nc5ccc(C(C)C)cc5)[C@@H]4C(=O)O)cc3)ccc2n1C` (single isomer, unassigned) [Example 80] were 0.00158 µM and 0.501 µM.
